Test results published in patent US20150004134A1, “TREATMENT OF CANCER WITH HETEROCYCLIC INHIBITORS OF GLUTAMINASE” (Calithera Biosciences, Inc., priority 2012, published 2015).
Read-outs that look alike come from different tables or passages of the source.

Legend:
[1] = biological target: T1, recombinant form of Glutaminase 1 (GAC) (Homo sapiens, UniProt O94925); assay: Recombinant Enzyme Assay (no preincubation); format: biochemical; settings: read-out: GAC Delta N2 IC50 no preinc;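 also: GDH-coupled GAC activity read as absorbance at 340 nm in kinetic mode over 15 min at 20 °C, slopes compared with a DMSO-only control, lower slope means inhibition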
T1 sequence (O94925 137-598 isoform O94925-3 limits assumed): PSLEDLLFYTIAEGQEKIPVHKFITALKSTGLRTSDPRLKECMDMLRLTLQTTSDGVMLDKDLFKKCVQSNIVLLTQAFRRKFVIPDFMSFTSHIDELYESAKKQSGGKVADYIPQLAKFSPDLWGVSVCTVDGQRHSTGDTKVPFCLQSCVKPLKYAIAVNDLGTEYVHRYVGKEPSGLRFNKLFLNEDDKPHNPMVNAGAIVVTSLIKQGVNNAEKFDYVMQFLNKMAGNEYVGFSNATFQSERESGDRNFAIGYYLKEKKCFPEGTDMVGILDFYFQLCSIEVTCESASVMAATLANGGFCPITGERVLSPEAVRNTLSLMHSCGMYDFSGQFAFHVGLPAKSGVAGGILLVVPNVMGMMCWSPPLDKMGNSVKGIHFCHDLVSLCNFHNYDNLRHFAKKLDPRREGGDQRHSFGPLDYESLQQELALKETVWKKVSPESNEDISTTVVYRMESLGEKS
Procedure: Compounds were assessed for their ability to inhibit the enzymatic activity of a recombinant form of Glutaminase 1 (GAC) using a biochemical assay that couples the production of glutamate (liberated by GAC) to glutamate dehydrogenase (GDH) and measuring the change in absorbance for the reduction of NAD^+ to NADH. […] Enzymatic reaction was started with the addition of 50 μL of enzyme solution (50 mM Tris-HCl pH 8.0, 0.2 mM EDTA, 150 mM K2HPO4, 0.1 mg/ml BSA, 1 mM DTT, 10 ppm antifoam, 4 units/ml GDH, 4 mM adenosine diphosphate, and 4 nM GAC) and read in a Molecular Devices M5 plate reader at 20° C. The plate reader was configured to read absorbance (λ=340 nm) in kinetic mode for 15 minutes. Data was recorded as milli-absorbance units per minute and slopes were compared to a control compound and a DMSO-only control on the same plate. Compounds with slopes less than the DMSO control were considered inhibitors and plate variability was assessed using the control compound.

P493-6 (myc "on") cells = assay: Cell Proliferation Assay; format: cell-based; settings: P493-6, 72 h
Procedure, shortened: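 P493-6 cells with myc on, 10,000 per well in RPMI/10% FBS, exposed to serially diluted compound (0.5% DMSO final) for 72 h at 37 °C, 5% CO2. Antiproliferative effect read by Cell Titer Glo luminescence or Viacount FACS viability count.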

[2] = biological target: T1, recombinant form of Glutaminase 1 (GAC); assay: Recombinant Enzyme Assay - Time Dependence (60 min preincubation); format: biochemical
Procedure, shortened: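 Enzyme and compound preincubated 60 min at 20° C; reaction started with substrate buffer (50 mM Tris-HCl pH 8.0, 150 mM K2HPO4, 1 mM DTT, 20 mM L-glutamine, 2 mM NAD^+). NADH formation followed at 340 nm in kinetic mode for 15 min at 20° C; slopes (mAU/min) compared with DMSO and control-compound wells.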

[3] = read-out: Cell prolif P493 72 h IC50, P493 cells, 72 h
[4] = read-out: Cell prolif P493 72 h IC50, P493-6 cells, 72 h
[5] = read-out: GAC Delta N2 IC50 60 min preinc

SMILES	IC50 [1]	IC50 (P493-6 (myc "on") cells; [3])	IC50 (P493-6 (myc "on") cells; [4])	IC50 [2, 5]	IC50 [2]
O=C(Nc1nnc(CCSCCc2nnc(NC(=O)C(CO)c3ccccc3)s2)s1)C(CO)c1ccccc1 (stereo not drawn) [Compound 24]	510 nM	2300 nM	–	–	–
O=C(CCCCN1CCOCC1)OCN(C(=O)Cc1ccccc1)c1nnc(CCSCCc2nnc(N(COC(=O)OCCCN3CCOCC3)C(=O)Cc3ccccc3)s2)s1 [Compound 28]	> 50000 nM	1000 nM	–	–	–
O=C(Cc1ccccc1)Nc1nnc(CCSCCc2nnc(NC(=O)C(CO)c3ccccc3)s2)s1 (stereo not drawn) [Compound 29]	560 nM	4100 nM	–	–	–
O=C(Nc1nnc(CCSCCc2nnc(NC(=O)[C@H]3C[C@@H]3c3ccccc3)s2)s1)C1C[C@@H]1c1ccccc1 (stereo partly drawn) [Compound 91]	> 20000 nM	–	–	–	–
Nc1cccc(CC(=O)Nc2nnc(CCSCCc3nnc(NC(=O)Cc4cccc(N)c4)s3)s2)c1 [Compound 99]	2700 nM	1000 nM	–	–	–
O=C(Nc1nnc(CCSCCc2nnc(NC(=O)C3COc4ccccc43)s2)s1)C1COc2ccccc21 (stereo not drawn) [Compound 133]	510 nM	150 nM	–	–	–
CC[C@@](O)(C(=O)Nc1nnc(CCCCc2nnc(NC(=O)[C@](O)(CC)c3ccccc3)s2)s1)c1ccccc1 [Compound 144]	> 20000 nM	–	–	–	–
COc1cccc(CC(=O)Nc2nnc(CCCCc3nnc(NC(=O)Cc4cccc(OC)c4)s3)s2)c1 [Compound 159]	110 nM	50 nM	–	–	–
COc1ccc(CC(=O)Nc2nnc(CCCCc3nnc(NC(=O)Cc4ccc(OC)cc4)s3)s2)cc1 [Compound 163]	130 nM	> 50000 nM	–	–	–
COc1cc(CC(=O)Nc2nnc(CCCCc3nnc(NC(=O)Cc4cc(OC)cc(OC)c4)s3)s2)cc(OC)c1 [Compound 205]	380 nM	4100 nM	–	–	–
O=C(Cc1cccc(OCCO)c1)Nc1nnc(CCCCc2nnc(NC(=O)Cc3cccc(OCCO)c3)s2)s1 [Compound 235]	110 nM	210 nM	–	–	–
CC(=O)O[C@@H](C(=O)Nc1nnc(CCSCc2nnc(NC(=O)[C@H](OC(C)=O)c3ccccc3)s2)s1)c1ccccc1 [Compound 238]	13000 nM	–	–	–	–
O=C(Nc1nnc(CCSCc2nnc(NC(=O)C(CO)c3ccccc3)s2)s1)C(CO)c1ccccc1 (stereo not drawn) [Compound 239]	300 nM	300 nM	–	–	–
O=C(Cc1cccc(OCCN2CCOCC2)c1)Nc1nnc(CCCCc2nnc(NC(=O)Cc3cccc(OCCN4CCOCC4)c3)s2)s1 [Compound 241]	380 nM	870 nM	–	–	–
O=C(Nc1nnc(CCSCc2nnc(NC(=O)[C@@H](O)c3ccccc3)s2)s1)[C@@H](O)c1ccccc1 [Compound 242]	360 nM	220 nM	–	–	–
CCOC(=O)Nc1nnc(CCCCc2nnc(NC(=O)Cc3ccccc3)s2)s1 [Compound 244]	840 nM	1700 nM	–	–	–
COc1cccc(CC(=O)Nc2nnc(CCSCc3nnc(NC(=O)Cc4cccc(OC)c4)s3)s2)c1 [Compound 250]	120 nM	140 nM	–	–	–
O=C(Cc1cccc(CN2CCNCC2)c1)Nc1nnc(CCSCc2nnc(NC(=O)Cc3cccc(CN4CCNCC4)c3)s2)s1 [Compound 276]	1500 nM	56000 nM	–	–	–
C=C(C(=O)Nc1nnc(CCCCc2nnc(NC(=O)C(OCC(=O)CCN3CCOCC3)c3ccccc3)s2)s1)c1ccccc1 (stereo not drawn) [Compound 281]	740 nM	660 nM	–	–	–
O=C(Cc1ccccn1)Nc1nnc(CCCCc2nnc(NC(=O)Cc3ccccn3)s2)s1 [Compound 307]	6400 nM	9300 nM	–	–	–
O=C(Cc1ccccc1)Nc1nnc(CCCCc2nnc(NC(=O)Cc3ccccn3)s2)s1 [Compound 310]	83 nM	120 nM	–	–	–
O=C(O)Cc1cccc(CC(=O)Nc2nnc(CCCCc3nnc(NC(=O)Cc4cccc(CC(=O)O)c4)s3)s2)c1 [Compound 313]	270 nM	94000 nM	–	–	–
O=C(Cc1ccccc1)Nc1ccc(CCCCc2nnc(NC(=O)C(CO)c3ccccc3)s2)nn1 (stereo not drawn) [Compound 314]	140 nM	48 nM	–	–	–
CC(C)(C)OC(=O)NCc1cccc(CC(=O)Nc2nnc(CCCCc3nnc(NC(=O)Cc4cccc(CNC(=O)OC(C)(C)C)c4)s3)s2)c1 [Compound 324]	4600 nM	100 nM	–	–	–
Nc1cccc(CC(=O)Nc2nnc(CCCCc3nnc(NC(=O)Cc4cccc(N)c4)s3)s2)c1 [Compound 329]	170 nM	450 nM	–	–	–
O=C(Cc1ccccc1)Nc1ccc(CCCCc2nnc(NC(=O)Cc3ccc(O)c(Cl)c3)s2)nn1 [Compound 336]	68 nM	52 nM	–	–	–

SMILES	IC50 [1]	IC50 (P493-6 (myc "on") cells; [3])	IC50 (P493-6 (myc "on") cells; [4])	IC50 [2, 5]	IC50 [2]
O=C(Cc1ccccc1)Nc1ccc(CCCCc2nnc(NC(=O)Cc3cccc(O)c3)s2)nn1 [Compound 337]	73 nM	21 nM	–	–	–
O=C(Cc1ccccc1)Nc1ccc(CCCCc2nnc(NC(=O)Cc3cccc(OCc4ccccc4)c3)s2)nn1 [Compound 338]	150 nM	43 nM	–	–	–
O=C(Cc1ccccc1)Nc1ccc(CCCCc2nnc(NC(=O)[C@H](O)c3cccc(Cl)c3)s2)nn1 [Compound 340]	96 nM	38 nM	–	–	–
O=C(Cc1ccccc1)Nc1ccc(CCCCc2nnc(NC(=O)C(O)c3cc(F)cc(F)c3)s2)nn1 (stereo not drawn) [Compound 351]	110 nM	49 nM	–	–	–
COc1cccc(CC(=O)Nc2nnc(CCCCc3ccc(NC(=O)Cc4ccccc4)nn3)s2)c1 [Compound 353]	49 nM	21 nM	–	–	–
CC(C)C(=O)NC(C)c1cccc(CC(=O)Nc2ccc(CCCCc3nnc(NC(=O)Cc4ccccc4)s3)nn2)c1 (stereo not drawn) [Compound 620]	–	–	11 nM	5 nM	–
CCC(=O)NC(C)c1cccc(CC(=O)Nc2ccc(CCCCc3nnc(NC(=O)Cc4ccccc4)s3)nn2)c1 (stereo not drawn) [Compound 621]	–	–	20 nM	–	5 nM
CC(NC(=O)C(F)(F)F)c1cccc(CC(=O)Nc2ccc(CCCCc3nnc(NC(=O)Cc4ccccc4)s3)nn2)c1 (stereo not drawn) [Compound 622]	–	–	10 nM	4 nM	–
CC(NC(=O)CC(F)(F)F)c1cccc(CC(=O)Nc2ccc(CCCCc3nnc(NC(=O)Cc4ccccc4)s3)nn2)c1 (stereo not drawn) [Compound 624]	–	–	9 nM	–	4 nM
CC(C)CC(=O)NC(C)c1cccc(CC(=O)Nc2ccc(CCCCc3nnc(NC(=O)Cc4ccccc4)s3)nn2)c1 (stereo not drawn) [Compound 625]	–	–	6 nM	–	4 nM
CC(NS(C)(=O)=O)c1cccc(CC(=O)Nc2ccc(CCCCc3nnc(NC(=O)Cc4ccccc4)s3)nn2)c1 (stereo not drawn) [Compound 626]	–	–	17 nM	–	4 nM
CC(C)(C)OC(=O)NC(C)(C)c1cccc(CC(=O)Nc2nnc(CCCCc3ccc(NC(=O)Cc4ccccc4)nn3)s2)c1 [Compound 630]	–	–	9 nM	4 nM	–
CC(C)(C)OC(=O)NC(C)(C)c1cccc(CC(=O)Nc2ccc(CCCCc3nnc(NC(=O)Cc4ccccc4)s3)nn2)c1 [Compound 631]	–	–	6 nM	5 nM	–
CC(C)(N)c1cccc(CC(=O)Nc2nnc(CCCCc3ccc(NC(=O)Cc4ccccc4)nn3)s2)c1 [Compound 632]	–	–	200 nM	–	10 nM
CC(C)(N)c1cccc(CC(=O)Nc2ccc(CCCCc3nnc(NC(=O)Cc4ccccc4)s3)nn2)c1 [Compound 633]	–	–	130 nM	7 nM	–
CS(=O)(=O)Cc1cccc(CC(=O)Nc2ccc(CCCCc3nnc(NC(=O)Cc4ccccc4)s3)nn2)c1 [Compound 635]	–	–	30 nM	5 nM	–
CCCCS(=O)(=O)Cc1cccc(CC(=O)Nc2nnc(CCCCc3ccc(NC(=O)Cc4ccccc4)nn3)s2)c1 [Compound 644]	–	–	13 nM	–	3 nM
CCCCS(=O)(=O)Cc1cccc(CC(=O)Nc2ccc(CCCCc3nnc(NC(=O)Cc4ccccc4)s3)nn2)c1 [Compound 645]	–	–	15 nM	2 nM	–
CCN(CC)C(=O)COc1cccc(CC(=O)Nc2ccc(CCCCc3nnc(NC(=O)Cc4ccccc4)s3)nn2)c1 [Compound 646]	–	–	37 nM	7 nM	–
CC(C)CNC(=O)COc1cccc(CC(=O)Nc2ccc(CCCCc3nnc(NC(=O)Cc4ccccc4)s3)nn2)c1 [Compound 647]	–	–	18 nM	4 nM	–
O=C(Cc1cccc2c1CNC2)Nc1ccc(CCCCc2nnc(NC(=O)Cc3cccc(OC(F)(F)F)c3)s2)nn1 [Compound 649]	–	–	34 nM	4 nM	–
CC(N)c1cc(CC(=O)Nc2nnc(CCCCc3ccc(NC(=O)Cc4ccccc4)nn3)s2)ccc1F (stereo not drawn) [Compound 655]	–	–	350 nM	19 nM	–
CC(N)c1cc(CC(=O)Nc2ccc(CCCCc3nnc(NC(=O)Cc4ccccc4)s3)nn2)ccc1F (stereo not drawn) [Compound 656]	–	–	400 nM	18 nM	–
O=C(Cc1ccccc1)Nc1ccc(CCCCc2nnc(NC(=O)Cc3cccc(OCC(F)(F)F)c3)s2)nn1 [Compound 665]	–	–	100 nM	5 nM	–
O=C(Cc1cccc(OCC(F)(F)F)c1)Nc1ccc(CCCCc2nnc(NC(=O)Cc3ccccc3)s2)nn1 [Compound 667]	–	–	110 nM	4 nM	–
